Assays:
[1] = target: BB7 (RNA-dependent RNA polymerase hepatitis C virus protein sequence derived from HCV replicon) (Hepatitis C virus genotype 1b, UniProt Q9WMX2); test: Hepatitis C polymerase inhibition, BB7 sequence; assay type: biochemical; conditions: Table 1B
[2] = target: T1, NS5B from the BK strain (genotype 1b) (Hepatitis C virus genotype 1b, UniProt P26663); test: Hepatitis C polymerase inhibition, NS5B BK strain, 33P-GTP filter assay; assay type: biochemical; conditions: Table 1B; NS5B BK strain; read-out: BK IC50
T1 construct: NS5B from the BK strain (genotype 1b) is expressed in E. coli as a protein in which the 21 C-terminal amino acids are replaced; made in house; host or cells: E. coli
T1 sequence (P26663 2420-2989): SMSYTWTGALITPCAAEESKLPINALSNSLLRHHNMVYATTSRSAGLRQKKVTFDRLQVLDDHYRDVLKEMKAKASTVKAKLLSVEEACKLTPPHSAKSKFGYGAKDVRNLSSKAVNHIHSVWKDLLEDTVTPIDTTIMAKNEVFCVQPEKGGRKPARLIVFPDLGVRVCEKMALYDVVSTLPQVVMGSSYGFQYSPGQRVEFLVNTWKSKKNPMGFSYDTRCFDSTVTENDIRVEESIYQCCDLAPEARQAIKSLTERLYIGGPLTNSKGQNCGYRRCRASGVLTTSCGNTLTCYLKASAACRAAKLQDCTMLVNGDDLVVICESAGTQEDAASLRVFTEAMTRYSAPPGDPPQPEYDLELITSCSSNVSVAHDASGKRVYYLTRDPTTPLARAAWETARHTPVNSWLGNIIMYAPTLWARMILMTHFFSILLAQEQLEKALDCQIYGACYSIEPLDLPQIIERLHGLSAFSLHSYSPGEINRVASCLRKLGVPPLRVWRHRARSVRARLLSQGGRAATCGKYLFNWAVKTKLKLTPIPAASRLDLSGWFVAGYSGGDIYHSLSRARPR
Method in brief: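 E. coli-expressed NS5B (BK, genotype 1b) with the 21 C-terminal residues replaced by a linker-His6 tag was preincubated with compound for 15 min at room temperature. It then extended a hairpin-primed heteropolymeric RNA (~3 nM, ~760 nt product) with α-[33P]-GTP for 2 h at 22–25° C. The reaction was stopped with EDTA, and incorporated label was counted on filters.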

BB7 (RNA-dependent RNA polymerase hepatitis C virus protein sequence derived from HCV replicon), sequence (Q9WMX2 2420-3010): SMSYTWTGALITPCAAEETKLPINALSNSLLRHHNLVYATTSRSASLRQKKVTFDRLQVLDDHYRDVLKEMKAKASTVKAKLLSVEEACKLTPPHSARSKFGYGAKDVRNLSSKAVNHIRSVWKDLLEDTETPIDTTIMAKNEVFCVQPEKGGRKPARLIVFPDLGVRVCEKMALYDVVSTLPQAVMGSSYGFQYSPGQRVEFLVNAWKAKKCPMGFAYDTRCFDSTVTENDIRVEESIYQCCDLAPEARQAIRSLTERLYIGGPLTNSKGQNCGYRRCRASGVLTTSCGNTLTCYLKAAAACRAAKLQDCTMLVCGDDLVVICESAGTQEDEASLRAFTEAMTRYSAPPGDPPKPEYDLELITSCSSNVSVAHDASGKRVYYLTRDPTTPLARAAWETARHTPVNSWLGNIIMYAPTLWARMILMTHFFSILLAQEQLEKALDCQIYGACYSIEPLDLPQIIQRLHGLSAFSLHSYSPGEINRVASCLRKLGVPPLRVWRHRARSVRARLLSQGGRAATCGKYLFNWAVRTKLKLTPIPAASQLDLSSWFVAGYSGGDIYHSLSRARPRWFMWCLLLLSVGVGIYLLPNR

O=C(O)CC1(C2CCC2)OCCc2c1[nH]c1ccc(Cl)c(Cl)c21 (stereo not shown) [Example 235, (5,6-dichloro-1-cyclobutyl-1,3,4,9-tetrahydropyrano[3,4-b]indol-1-yl)acetic acid]
IC50 [1]: 5.4 µM
IC50 [2]: 5.2 µM

O=C(O)CC1(C2CCCC2)OCCc2c1[nH]c1ccc(Cl)c(Cl)c21 (stereo not shown) [Example 236, (5,6-dichloro-1-cyclopentyl-1,3,4,9-tetrahydropyrano[3,4-b]indol-1-yl)acetic acid]
IC50 [1]: 9.6 µM
IC50 [2]: 10 µM

COCC1(CC(=O)O)OCCc2c1[nH]c1ccc(Cl)c(Cl)c21 (stereo not shown) [Example 237, (5,6-Dichloro-1-methoxymethyl-1,3,4,9-tetrahydropyrano[3,4-b]indol-1-yl)acetic acid]
IC50 [1]: > 24 µM
IC50 [2]: > 27 µM

COCCC1(CC(=O)O)OCCc2c1[nH]c1ccc(Cl)c(Cl)c21 (stereo not shown) [Example 238, [5,6-dichloro-1-(2-methoxyethyl)-1,3,4,9-tetrahydropyrano[3,4-b]indol-1-yl]acetic acid]
IC50 [1]: > 30 µM
IC50 [2]: 19 µM

O=C(O)CC1(CCC(F)(F)F)OCCc2c1[nH]c1ccc(Cl)c(Cl)c21 (stereo not shown) [Example 239, [5,6-dichloro-1-(3,3,3-trifluoropropyl)-1,3,4,9-tetrahydropyrano[3,4-b]indol-1-yl]acetic acid]
IC50 [1]: 5.4 µM
IC50 [2]: 4.6 µM

CCCC1(CC(=O)O)OCCc2c1[nH]c1cc(Cl)c(Cl)cc21 (stereo not shown) [Example 240, (6,7-dichloro-1-propyl-1,3,4,9-tetrahydropyrano[3,4-b]indol-1-yl)acetic acid]
IC50 [1]: 18 µM
IC50 [2]: 8.9 µM

CCC1(CC(=O)O)OCCc2c1[nH]c1c(Cl)ccc(Cl)c21 (stereo not shown) [Example 243, (5,8-dichloro-1-ethyl-1,3,4,9-tetrahydropyrano[3,4-b]indol-1-yl)acetic acid]
IC50 [1]: 10 µM
IC50 [2]: 6.3 µM

N#CCCCC1(CC(=O)O)OCCc2c1[nH]c1c(Cl)ccc(Cl)c21 (stereo not shown) [Example 244, [5,8-dichloro-1-(3-cyanopropyl)-1,3,4,9-tetrahydropyrano[3,4-b]indol-1-yl)acetic acid]
IC50 [1]: 1.8 µM
IC50 [2]: 0.3 µM

O=C(O)CC1(CCC(F)(F)F)OCCc2c1[nH]c1c(Cl)ccc(Cl)c21 (stereo not shown) [Example 245, [5,8-dichloro-1-(3,3,3-trifluoropropyl)-1,3,4,9-tetrahydropyrano[3,4-b]indol-1-yl]acetic acid]
IC50 [1]: 0.74 µM
IC50 [2]: 0.4 µM

COCC1(CC(=O)O)OCCc2c1[nH]c1c(Cl)ccc(Cl)c21 (stereo not shown) [Example 246, (5,8-dichloro-1-methoxymethyl-1,3,4,9-tetrahydropyrano[3,4-b]indol-1-yl)acetic acid]
IC50 [1]: > 30 µM
IC50 [2]: > 30 µM

COCCC1(CC(=O)O)OCCc2c1[nH]c1c(Cl)ccc(Cl)c21 (stereo not shown) [Example 247, [5,8-dichloro-1-(2-methoxyethyl)-1,3,4,9-tetrahydropyrano[3,4-b]indol-1-yl]acetic acid]
IC50 [1]: 18 µM
IC50 [2]: > 24 µM

CCOCC1(CC(=O)O)OCCc2c1[nH]c1c(Cl)ccc(Cl)c21 (stereo not shown) [Example 248, (5,8-dichloro-1-ethoxymethyl-1,3,4,9-tetrahydropyrano[3,4-b]indol-1-yl)acetic acid]
IC50 [1]: > 30 µM
IC50 [2]: > 30 µM

CSCC1(CC(=O)O)OCCc2c1[nH]c1c(Cl)ccc(Cl)c21 (stereo not shown) [Example 249, (5,8-dichloro-1-methylthiomethyl-1,3,4,9-tetrahydropyrano[3,4-b]indol-1-yl)acetic acid]
IC50 [1]: 12 µM
IC50 [2]: 7 µM

CCSCC1(CC(=O)O)OCCc2c1[nH]c1c(Cl)ccc(Cl)c21 (stereo not shown) [Example 250, (5,8-dichloro-1-ethylthiomethyl-1,3,4,9-tetrahydropyrano[3,4-b]indol-1-yl)acetic acid]
IC50 [1]: 3.9 µM
IC50 [2]: 3.7 µM

C=CCCC1(CC(=O)O)OCCc2c1[nH]c1c(Cl)ccc(Cl)c21 (stereo not shown) [Example 251, [5,8-dichloro-1-(3-butenyl)-1,3,4,9-tetrahydropyrano[3,4-b]indol-1-yl]acetic acid]
IC50 [1]: 3.5 µM
IC50 [2]: 1.7 µM

O=C(O)CC1(C2CC2)OCCc2c1[nH]c1c(Cl)ccc(Cl)c21 (stereo not shown) [Example 252, (5,8-dichloro-1-cyclopropyl-1,3,4,9-tetrahydropyrano[3,4-b]indol-1-yl)acetic acid]
IC50 [1]: 19 µM
IC50 [2]: 7.3 µM

O=C(O)CC1(C2CCC2)OCCc2c1[nH]c1c(Cl)ccc(Cl)c21 (stereo not shown) [Example 253, (5,8-dichloro-1-cyclobutyl-1,3,4,9-tetrahydropyrano[3,4-b]indol-1-yl)acetic acid]
IC50 [1]: 0.7 µM
IC50 [2]: 0.35 µM

O=C(O)CC1(C2CCCC2)OCCc2c1[nH]c1c(Cl)ccc(Cl)c21 (stereo not shown) [Example 254, (5,8-dichloro-1-cyclopentyl-1,3,4,9-tetrahydropyrano[3,4-b]indol-1-yl)acetic acid]
IC50 [1]: 5.8 µM
IC50 [2]: 3.3 µM

O=C(O)CC1(C2CCCCC2)OCCc2c1[nH]c1c(Cl)ccc(Cl)c21 (stereo not shown) [Example 255, (5,8-dichloro-1-cyclohexyl-1,3,4,9-tetrahydropyrano[3,4-b]indol-1-yl)acetic acid]
IC50 [1]: 15 µM
IC50 [2]: > 30 µM

CCC(C)C1(CC(=O)O)OCCc2c1[nH]c1c(Cl)ccc(Cl)c21 (stereo not shown) [Example 256, [5,8-dichloro-1-(1-methylpropyl)-1,3,4,9-tetrahydropyrano[3,4-b]indol-1-yl]acetic acid]
IC50 [1]: 0.34 µM
IC50 [2]: 0.15 µM

O=C(O)CC1(CC2CC2)OCCc2c1[nH]c1c(Cl)ccc(Cl)c21 (stereo not shown) [Example 257, (5,8-dichloro-1-cyclopropylmethyl-1,3,4,9-tetrahydropyrano[3,4-b]indol-1-yl)acetic acid]
IC50 [1]: 2.9 µM
IC50 [2]: 1.9 µM

O=C(O)CC1(CC2CCCC2)OCCc2c1[nH]c1c(Cl)ccc(Cl)c21 (stereo not shown) [Example 258, (5,8-dichloro-1-cyclopentylmethyl-1,3,4,9-tetrahydropyrano[3,4-b]indol-1-yl)acetic acid]
IC50 [1]: 14 µM
IC50 [2]: 9.4 µM

Cc1ccc(Cl)c2c3c([nH]c12)C(CC(=O)O)(C1CCC1)OCC3 (stereo not shown) [Example 259, (5-chloro-1-cyclobutyl-8-methyl-1,3,4,9-tetrahydropyrano[3,4-b]indol-1-yl)acetic acid]
IC50 [1]: 1.6 µM
IC50 [2]: 0.5 µM

CCCC1(CC(=O)O)OCCc2c1[nH]c1c(C)ccc(Cl)c21 (stereo not shown) [Example 260, (5-chloro-8-methyl-1-propyl-1,3,4,9-tetrahydropyrano[3,4-b]indol-1-yl)acetic acid]
IC50 [1]: 1.2 µM
IC50 [2]: 0.4 µM

CCCC1(CC(=O)O)OCCc2c1[nH]c1c(Cl)ccc(C)c21 (stereo not shown) [Example 262, (8-chloro-5-methyl-1-propyl-1,3,4,9-tetrahydropyrano[3,4-b]indol-1-yl)acetic acid]
IC50 [1]: 8.3 µM
IC50 [2]: 2.7 µM

O=C(O)CC1(CCC(F)(F)F)OCCc2c1[nH]c1c(Cl)ccc(C(F)(F)F)c21 (stereo not shown) [Example 263, [8-chloro-5-trifluoromethyl-1-(3,3,3-trifluoropropyl)-1,3,4,9-tetrahydropyrano[3,4-b]indol-1-yl]acetic acid]
IC50 [1]: 3.2 µM
IC50 [2]: 1.3 µM

COCCC1(CC(=O)O)OCCc2c1[nH]c1c(Cl)ccc(C(F)(F)F)c21 (stereo not shown) [Example 265, [8-chloro-1-(2-methoxyethyl)-5-trifluoromethyl-1,3,4,9-tetrahydropyrano[3,4-b]indol-1-yl]acetic acid]
IC50 [1]: 22 µM
IC50 [2]: 20 µM

CCOCC1(CC(=O)O)OCCc2c1[nH]c1c(Cl)ccc(C(F)(F)F)c21 (stereo not shown) [Example 266, (8-chloro-1-ethoxymethyl-5-trifluoromethyl-1,3,4,9-tetrahydropyrano[3,4-b]indol-1-yl)acetic acid]
IC50 [1]: 17 µM
IC50 [2]: 14 µM

O=C(O)CC1(C2CCC2)OCCc2c1[nH]c1c(Cl)ccc(C(F)(F)F)c21 (stereo not shown) [Example 267, (8-chloro-1-cyclobutyl-5-trifluoromethyl-1,3,4,9-tetrahydropyrano[3,4-b]indol-1-yl)acetic acid]
IC50 [1]: 2.3 µM
IC50 [2]: 0.66 µM

CCCC1(CC(=O)O)OCCc2c1[nH]c1c(F)ccc(C(F)(F)F)c21 (stereo not shown) [Example 268, (8-fluoro-1-propyl-5-trifluoromethyl-1,3,4,9-tetrahydropyrano[3,4-b]indol-1-yl)acetic acid]
IC50 [1]: 6.1 µM
IC50 [2]: 4.6 µM

O=C(O)CC1(C2CCC2)OCCc2c1[nH]c1c(F)ccc(C(F)(F)F)c21 (stereo not shown) [Example 269, (1-cyclobutyl-8-fluoro-5-trifluoromethyl-1,3,4,9-tetrahydropyrano[3,4-b]indol-1-yl)acetic acid]
IC50 [1]: 9.4 µM
IC50 [2]: 9.4 µM

O=C(O)CC1(C2CCCC2)OCCc2c1[nH]c1c(F)ccc(C(F)(F)F)c21 (stereo not shown) [Example 270, (1-cyclopentyl-8-fluoro-5-trifluoromethyl-1,3,4,9-tetrahydropyrano[3,4-b]indol-1-yl)acetic acid]
IC50 [1]: 17 µM
IC50 [2]: 20 µM

CCCC1(CC(=O)O)OCCc2c1[nH]c1c(C(F)(F)F)ccc(C(F)(F)F)c21 (stereo not shown) [Example 271, [5,8-bis(trifluoromethyl)-1-propyl-1,3,4,9-tetrahydropyrano[3,4-b]indol-1-yl]acetic acid]
IC50 [1]: 3.5 µM
IC50 [2]: 2.7 µM

CCCC1(CC(=O)O)OCCc2c1[nH]c1c(C)ccc(C(F)(F)F)c21 (stereo not shown) [Example 272, (8-methyl-1-propyl-5-trifluoromethyl-1,3,4,9-tetrahydropyrano[3,4-b]indol-1-yl)acetic acid]
IC50 [1]: 1.5 µM
IC50 [2]: 0.5 µM

CCCCC1(CC(=O)O)OCCc2c1[nH]c1c(C)ccc(C(F)(F)F)c21 (stereo not shown) [Example 273, (8-methyl-1-butyl-5-trifluoromethyl-1,3,4,9-tetrahydropyrano[3,4-b]indol-1-yl)acetic acid]
IC50 [1]: 6.5 µM
IC50 [2]: 1.4 µM

From US7217730B2, “Method for the use of pyranoindole derivatives to treat infection with Hepatitis C virus” (Wyeth, priority 2002, dated 2007)
